{"source": "patent US9333202B2", "about": "“Non-retinoid antagonists for treatment of age-related macular degeneration and stargardt disease” (THE TRUSTEES OF COLUMBIA UNIVERSITY IN THE CITY OF NEW YORK, priority 2012, dated 2016)", "key": {"RBP4-TTR interaction [1]": {"target": "T1, RBP4-TTR interaction (Homo sapiens, UniProt P02753)", "assay": "TR-FRET (HTRF) assay for antagonists of retinol-induced RBP4-TTR interaction, agonist and antagonist mode (Example 2)", "format": "biochemical", "parameters": "made in house; host or cells: E. coli", "details": "agonist mode, dose titration", "description": "TR-FRET (Time-Resolved Fluorescence Resonance Energy Transfer) is an assay format that can be used in characterization of compounds affecting protein-protein interactions (31-33). […] In the presence of retinol, RBP4-TTR interaction induces FRET that can be registered as increased ratio of […] fluorescence signals. Binding of a desired RBP4 antagonist displaces retinol and induces hindrance for RBP4-TTR interaction resulting in the decreased FRET signal (FIG. 7).\nThe assay was developed using E. coli-expressed MBP-tagged RBP4 and commercially available TTR labeled directly with Eu3+ cryptate. In addition to MBP-RBP4 and Eu3+ (K)-TTR, a detector reagent anti-MBP-d2 was present in the mix. The assay was first optimized in the agonist mode; sensitivity and dynamic range of the assay was […] in respect to RBP4, TTR and detection reagent concentrations."}, "ERG b-wave": {"test_system": "ERG b-wave", "assay": "ERG b-wave after photobleaching", "details": "in vivo"}, "RBP4-TTR interaction [2]": {"target": "T1, RBP4-TTR interaction", "assay": "HTRF/TR-FRET assay for retinol-dependent RBP4-TTR interaction (1 μM retinol)", "format": "biochemical", "parameters": "human RBP4 fragment (amino acids 19-201) was expressed in the Gold(DE3)pLysS E. coli strain; made in house; host or cells: E. coli Gold(DE3)pLysS (Stratagene), pMAL-c4x vector", "description": "Bacterially expressed MBP-RBP4 and untagged TTR were used in this assay. For the use in the TR-FRET assay the maltose binding protein (MBP)-tagged human RBP4 fragment (amino acids 19-201) was expressed in the Gold(DE3)pLysS E. coli strain (Stratagene) using the […] vector. Following cell lysis, recombinant RBP4 was purified from the soluble fraction using the ACTA FPLC system (GE Healthcare) equipped with the 5-ml the MBP Trap HP column. Human untagged TTR was purchased from Calbiochem. Untagged TTR was labeled directly with Eu^3+ Cryptate-NHS using the HTRF Cryptate Labeling kit from CisBio following the manufacturer's recommendations. HTRF assay was performed in white low volume 384 well plates (Greiner-Bio) in a final assay volume of 16 μl per well. The reaction buffer contained 10 mM Tris-HCl pH 7.5, 1 mM DTT, 0.05% NP-40, 0.05% Prionex, 6% glycerol, and 400 mM KF. Each reaction contained 60 nM MBP-RBP4 and 2 nM TTR-Eu along with 26.7 nM of anti-MBP antibody conjugated with d2 (Cisbio). Titration of test compounds in this assay was conducted in the presence of 1 μM retinol. All reactions were assembled in the dark under dim red light and incubated overnight at +4° C. wrapped in aluminum foil. TR-FRET signal was measured in the SpectraMax M5e Multimode Plate Reader (Molecular Device). Fluorescence was excited at 337 nm and two readings per well were taken: Reading 1 for time-gated energy transfer from Eu(K) to d2 (337 nm excitation, 668 nm emission, counting delay 75 microseconds, counting window 100 microseconds) and Reading 2 for Eu(K) time-gated fluorescence (337 nm excitation, 620 nm emission, counting delay 400 microseconds, counting window 400 microseconds). The TR-FRET signal was expressed as the ratio of fluorescence intensity: Flu665/Flu620×10,000."}}, "note": "“Also recorded” adds a separate entry of the source.", "data": [{"smiles": "O=C(O)c1ccccc1NC(=O)N1CCC(c2ccccc2C(F)(F)F)CC1", "note": "[Compound 1, 2(4-(2-(trifluoromethyl)phenyl)piperidine-1-carboxamido)benzoic acid]", "values": [{"measurement": "Induction of RBP4-TTR interaction", "setting": "RBP4-TTR interaction [1]", "value": "did not induce RBP4-TTR interaction"}, {"measurement": "Effect on ERG b-wave after photobleaching", "setting": "ERG b-wave", "value": "does not reduce ERG b-wave after photobleaching"}, {"measurement": "Antagonism of RBP4-TTR interaction in vitro (in words)", "setting": "RBP4-TTR interaction [2]", "value": "antagonize retinol-dependent RBP4-TTR interaction; also recorded: disrupt retinol-induced RBP4-TTR interaction; also recorded: antagonize RBP4-TTR interaction in vitro at biologically significant concentrations"}]}]}
